Assay results: article PMC5025650, “Comparison of research methods for functional characterization of insect olfactory receptors” (Scientific Reports, 2016)

Legend:
HassOR13/HassOrco [1] = target: T1, HassOR13/HassOrco (Helicoverpa assulta, UniProt A0A0B4ZYC6); experiment: two-electrode voltage clamp, Xenopus oocytes; assay type: cell-based; details: weak agonist; with HassOrco; holding potential −80 mV; pH 7.6
T1 construct: gene OR13; called heterodimer; with Odorant receptor coreceptor
T1 sequence (A0A0B4ZYC6 1-425): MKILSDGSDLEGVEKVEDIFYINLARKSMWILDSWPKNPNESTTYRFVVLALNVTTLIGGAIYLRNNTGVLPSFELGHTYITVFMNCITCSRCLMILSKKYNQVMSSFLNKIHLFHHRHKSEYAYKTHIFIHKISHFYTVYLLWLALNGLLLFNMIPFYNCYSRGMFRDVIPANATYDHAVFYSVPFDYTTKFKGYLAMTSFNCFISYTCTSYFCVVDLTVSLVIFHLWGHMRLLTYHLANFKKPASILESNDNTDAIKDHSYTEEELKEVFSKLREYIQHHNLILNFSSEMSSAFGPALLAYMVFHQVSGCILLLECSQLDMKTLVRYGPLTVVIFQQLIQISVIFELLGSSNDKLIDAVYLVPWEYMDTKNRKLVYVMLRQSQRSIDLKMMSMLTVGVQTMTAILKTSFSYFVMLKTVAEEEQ
T1 sequence (A7UGE1 1-473 partner): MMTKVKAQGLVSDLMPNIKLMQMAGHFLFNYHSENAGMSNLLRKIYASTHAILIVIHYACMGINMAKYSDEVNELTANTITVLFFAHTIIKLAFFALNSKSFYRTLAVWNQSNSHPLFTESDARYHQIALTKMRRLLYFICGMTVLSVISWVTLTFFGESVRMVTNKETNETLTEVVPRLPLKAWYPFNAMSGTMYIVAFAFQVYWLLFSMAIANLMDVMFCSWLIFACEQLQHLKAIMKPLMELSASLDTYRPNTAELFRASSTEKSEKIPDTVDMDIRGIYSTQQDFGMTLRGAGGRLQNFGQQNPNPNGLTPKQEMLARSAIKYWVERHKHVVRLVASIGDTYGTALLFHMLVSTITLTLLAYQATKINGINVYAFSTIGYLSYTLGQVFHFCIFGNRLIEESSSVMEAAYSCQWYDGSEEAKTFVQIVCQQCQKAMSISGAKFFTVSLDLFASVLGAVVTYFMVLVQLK

HassOR13/HassOrco [2] = target: T1, HassOR13/HassOrco; experiment: two-electrode voltage clamp, Xenopus oocytes; assay type: cell-based

CCCC/C=C\CCCCCCCC=O [Z9-14:Ald, (Z)-9-tetradecenal]
current at 10^-4 M (HassOR13/HassOrco [1]): 31 ± 8 nA

CCCCCC/C=C\CCCCCCCC=O [Z9-16:Ald, (Z)-9-hexadecenal]
current at 10^-4 M (HassOR13/HassOrco [1]): 72 ± 13 nA

CCCC/C=C\CCCCCCCCCC=O [Z11-16:Ald, (Z)-11-hexadecenal]
EC50 (HassOR13/HassOrco [2]): 68.4 µM
